Read-outs that look alike come from different tables or passages of the source.
Tests used:
SETD2(1434-1711) = target: T1, SETD2(1434-1711) (Homo sapiens, UniProt Q9BYW2); test: SETD2 (1434-1711) assay; assay type: biochemical; settings: read-out: SETD2 (1434-1711)
T1 construct: SETD2 (1434-1711) Assay; catalogue N/A
T1 sequence (Q9BYW2 1434-1711): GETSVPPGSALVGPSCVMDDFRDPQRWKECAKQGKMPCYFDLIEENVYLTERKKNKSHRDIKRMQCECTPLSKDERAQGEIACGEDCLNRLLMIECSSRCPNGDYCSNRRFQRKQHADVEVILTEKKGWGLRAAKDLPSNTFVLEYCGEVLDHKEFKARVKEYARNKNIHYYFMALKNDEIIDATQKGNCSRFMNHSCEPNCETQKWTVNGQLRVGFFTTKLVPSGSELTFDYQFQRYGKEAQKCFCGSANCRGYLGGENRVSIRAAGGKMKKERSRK

H3K36me3 in A549 cells = test: In-Cell Western (ICW) assay of SETD2 inhibitors (A549 assay); assay type: cell-based, human; settings: A549 cells, read-out: SETD2 A549
How it was run: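 A549 cells seeded at 4,000/well onto compound and incubated 3 days at 37° C. Methanol-fixed cells stained overnight at 4° C with anti-H3K36me3 (1:1000), then IRDye 800CW secondary with DRAQ5 DNA counterstain. Plates read by Licor imaging at 700 and 800 channels.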

SMILES	IC50 (SETD2(1434-1711)) [nM]	IC50 (H3K36me3 in A549 cells) [nM]	IC50 (H3K36me3 in A549 cells; Homo sapiens) [nM]
CC(=O)N(C(C)C)C1CCN(C2CCC[C@@H](NC(=O)c3cc4c(F)ccc(C)c4[nH]3)C2)C1 (stereo partly shown) [compound 862]	400	> 2000	
Cc1ccc(F)c2cc(C(=O)NC3CCCC(N4CCN5C(=O)OCC5C4)C3)[nH]c12 (stereo not shown) [compound 865]	30	100	
Cc1ccc(F)c2cc(C(=O)N[C@@H]3CCC[C@@H](N4CCN5C(=O)OCC5C4)C3)[nH]c12 (stereo partly shown) [compound 866]	900		> 2000
CC(=O)N1CCC(N2CCCCC(NC(=O)c3cc4c(F)ccc(C)c4[nH]3)C2)CC1 (stereo not shown) [compound 867]	400		> 2000
Cc1ccc(F)c2cc(C(=O)NC3CCCC(N4CCn5ncnc5C4)C3)[nH]c12 (stereo not shown) [compound 868]	100	200	
Cc1ccc(F)c2cc(C(=O)N[C@@H]3CCC[C@@H](N4CCn5ncnc5C4)C3)[nH]c12 [compound 869]	6600	> 2000	
Cc1ccc(F)c2cc(C(=O)N[C@@H]3CCC[C@H](N4CCN(C(=O)CO)CC4)C3)[nH]c12 [compound 870]	10		40
CC(=O)N(CCO)C1CCN([C@H]2CCC[C@@H](NC(=O)c3cc4c(F)ccc(C)c4[nH]3)C2)C1 (stereo partly shown) [compound 872]	100		1200
CC(=O)N(CCO)C1CCN([C@@H]2CCC[C@@H](NC(=O)c3cc4c(F)ccc(C)c4[nH]3)C2)C1 (stereo partly shown) [compound 873]	1100		> 2000
Cc1ccc(F)c2cc(C(=O)N[C@@H]3CCCC(N4CCC5(CCNC5=O)CC4)C3)[nH]c12 (stereo partly shown) [compound 874]	400		> 2000
CCOC(=O)N1CCC(N2CCC[C@@H](NC(=O)c3cc4c(F)ccc(C)c4[nH]3)C2)CC1 [compound 875]	700		> 2000
CCOC(=O)N1CCC(N2CCC[C@H](NC(=O)c3cc4c(F)ccc(C)c4[nH]3)C2)CC1 [compound 876]	> 10000		> 2000
CC(=O)N1CCN(CC2CCCN(C(=O)c3cc4c(F)ccc(C)c4[nH]3)C2)CC1 (stereo not shown) [compound 877]	> 10000		> 2000
COCC(=O)N(C)C1CCN([C@H]2CCC[C@@H](NC(=O)c3cc4c(F)ccc(C)c4[nH]3)C2)C1 (stereo partly shown) [compound 880]	20		100
Cc1ccc(F)c2cc(C(=O)N[C@@H]3CCC[C@H](N4CCCC5(CCNC5=O)C4)C3)[nH]c12 (stereo partly shown) [compound 882]	100		700
Cc1ccc(F)c2cc(C(=O)N[C@@H]3CCC[C@H](N4CCN(C)C(=O)C4C)C3)[nH]c12 (stereo partly shown) [compound 884]	100		200
Cc1ccc(F)c2cc(C(=O)N[C@@H]3CCC[C@@H](N4CCN(C)C(=O)C4C)C3)[nH]c12 (stereo partly shown) [compound 885]	7600		> 2000
CC(=O)N1CCN(C(=O)C2CCCN(C(=O)c3cc4c(F)ccc(C)c4[nH]3)C2)CC1 (stereo not shown) [compound 886]	8900		> 2000
Cc1ccc(F)c2cc(C(=O)N[C@@H]3CCC[C@H](N4CCCN(C)C(=O)C4)C3)[nH]c12 [compound 887]	100		300

Results, then the molecule that gave them:

IC50 (SETD2(1434-1711)) [nM]	IC50 (H3K36me3 in A549 cells) [nM]	IC50 (H3K36me3 in A549 cells; Homo sapiens) [nM]	SMILES
2500		> 2000	CC(=O)N1CC2(C1)CN([C@@H]1CCC[C@@H](NC(=O)c3cc4c(F)ccc(C)c4[nH]3)C1)C2 [compound 889]
100		> 2000	Cc1ccc(F)c2cc(C(=O)N[C@@H]3CCCC(N4CCC5(CC4)CNC(=O)N5)C3)[nH]c12 (stereo partly shown) [compound 890]
900		> 2000	Cc1ccc(F)c2cc(C(=O)N[C@@H]3CCCN(C4CCN(C(=O)CN(C)C)CC4)C3)[nH]c12 [compound 891]
> 10000		> 2000	Cc1ccc(F)c2cc(C(=O)N[C@H]3CCCN(C4CCN(C(=O)CN(C)C)CC4)C3)[nH]c12 [compound 892]
100		900	Cc1ccc(F)c2cc(C(=O)N[C@@H]3CCCC(N4CCNC(=O)CC4)C3)[nH]c12 (stereo partly shown) [compound 893]
30		1400	Cc1ccc(F)c2cc(C(=O)N[C@@H]3CCCC(N4CCC5(CCC(=O)N5)CC4)C3)[nH]c12 (stereo partly shown) [compound 894]
50		1500	Cc1ccc(F)c2cc(C(=O)NC3CCCC(N4CCC5(CC4)COC(=O)N5)C3)[nH]c12 (stereo not shown) [compound 895]
100		1800	Cc1ccc(F)c2cc(C(=O)N[C@@H]3CCCC(N4CCC5(CC4)CNC(=O)C5)C3)[nH]c12 (stereo partly shown) [compound 896]
10		100	Cc1ccc(F)c2cc(C(=O)N[C@@H]3CCC[C@H](N4CC5(CNC(=O)C5)C4)C3)[nH]c12 [compound 897]
4300		> 2000	Cc1ccc(F)c2cc(C(=O)N[C@@H]3CCC[C@@H](N4CC5(CNC(=O)C5)C4)C3)[nH]c12 [compound 898]
4200		> 2000	Cc1ccc(F)c2cc(C(=O)N[C@@H]3CCC[C@@H](c4cccnc4)C3)[nH]c12 [compound 902]
40		300	Cc1ccc(F)c2cc(C(=O)N[C@@H]3CCC[C@H](c4cccnc4)C3)[nH]c12 [compound 903]
8100		> 2000	Cc1ccc(F)c2cc(C(=O)N[C@H]3CCC[C@H](c4cccnc4)C3)[nH]c12 [compound 904]
2900		> 2000	Cc1ccc(F)c2cc(C(=O)N[C@H]3CCC[C@@H](c4cccnc4)C3)[nH]c12 [compound 905]
10		10	CC(=O)N1CCN([C@H]2CCC[C@@H](NC(=O)c3cc4c(F)ccc(C)c4[nH]3)C2)CC1C (stereo partly shown) [compound 906]
900		1700	CC(=O)N1CCN([C@@H]2CCC[C@@H](NC(=O)c3cc4c(F)ccc(C)c4[nH]3)C2)CC1C (stereo partly shown) [compound 907]
4		600	Cc1ccc(F)c2cc(C(=O)N[C@@H]3CCC[C@H](N4CCC(N(C)C(=O)CN(C)C)C4)C3)[nH]c12 (stereo partly shown) [compound 908]
4700		> 2000	Cc1ccc(F)c2cc(C(=O)N[C@@H]3CCC[C@@H](N4CCC(N(C)C(=O)CN(C)C)C4)C3)[nH]c12 (stereo partly shown) [compound 909]
30		100	Cc1ccc(F)c2cc(C(=O)N[C@@H]3CCC[C@H](N4CCC(N5CCCC5=O)C4)C3)[nH]c12 (stereo partly shown) [compound 910]
1000		> 2000	Cc1ccc(F)c2cc(C(=O)N[C@@H]3CCC[C@@H](N4CCC(N5CCCC5=O)C4)C3)[nH]c12 (stereo partly shown) [compound 911]
1000		1300	Cc1ccc(F)c2cc(C(=O)N[C@@H]3CCC[C@H](N4CCN(C)CC4=O)C3)[nH]c12 [compound 916]
> 10000		> 2000	Cc1ccc(F)c2cc(C(=O)N[C@@H]3CCC[C@@H](N4CCN(C)CC4=O)C3)[nH]c12 [compound 917]
20		100	Cc1ccc(F)c2cc(C(=O)N[C@@H]3CCC[C@H](N4CCN(C(=O)C5COC5)CC4)C3)[nH]c12 [compound 918]
900		> 2000	Cc1ccc(F)c2cc(C(=O)N[C@@H]3CCC[C@@H](N4CCN(C(=O)C5COC5)CC4)C3)[nH]c12 [compound 919]
100		600	Cc1ccc(F)c2cc(C(=O)N[C@@H]3CCC[C@H](N4CCN(C5CCOC5)CC4)C3)[nH]c12 (stereo partly shown) [compound 924]
